Source: ChEMBL document CHEMBL5150068, “Structure-Based Design of Tropane Derivatives as a Novel Series of CCR5 Antagonists with Broad-Spectrum Anti-HIV-1 Activities and Improved Oral Bioavailability” (J Med Chem, 2022)
pEC50, pIC50: −log10 of the molar value.

What was measured:
[1] = system: Human immunodeficiency virus 1; assay: Antiviral activity against HIV-1 YU-2 infected in human TZM-bl cells measured after 48 hrs incubation by luciferase based analysis; format: functional, organism-based; details: Human immunodeficiency virus 1, YU-2, TZM-bl, 48 h
[2] = target: C-C chemokine receptor type 5 (Homo sapiens, UniProt P51681); assay: Antagonist activity at CCR5 (unknown origin) expressed in HEK293 cells co-expressing Galpha16 assessed as intracellular calcium change incubated for 15 mins by Fluo-4 AM calcium flux assay; format: functional, cell-based
C-C chemokine receptor type 5, sequence (P51681 whole entry): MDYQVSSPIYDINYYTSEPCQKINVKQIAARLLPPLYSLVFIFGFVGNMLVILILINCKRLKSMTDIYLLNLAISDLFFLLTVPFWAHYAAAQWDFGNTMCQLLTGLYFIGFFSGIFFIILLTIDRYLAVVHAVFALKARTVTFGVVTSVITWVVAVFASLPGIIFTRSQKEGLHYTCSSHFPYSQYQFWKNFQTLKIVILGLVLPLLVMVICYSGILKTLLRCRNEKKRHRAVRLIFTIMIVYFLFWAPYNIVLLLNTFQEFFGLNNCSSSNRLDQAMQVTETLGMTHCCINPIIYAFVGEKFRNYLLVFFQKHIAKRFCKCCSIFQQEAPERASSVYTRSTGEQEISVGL

in vitro [3] = details: human, TZM-bl cells
Description: Therapeutic index, ratio of CC50 for human TZM-bl cells to EC50 for antiviral activity against HIV-1 Ba-L

[4] = Cytotoxicity against human TZM-bl cells incubated for 48 hrs by MTT assay; format: toxicity, cell-based
[5] = system: Human immunodeficiency virus 1; assay: Antiviral activity against HIV-1 Ba-L infected in human TZM-bl cells measured after 48 hrs incubation by luciferase based analysis; format: functional, organism-based; details: Human immunodeficiency virus 1, Ba-L
[6] = system: Human immunodeficiency virus 1; assay: Antiviral activity against HIV-1 SF162 infected in human TZM-bl cells measured after 48 hrs incubation by luciferase based analysis; format: functional, organism-based; details: Human immunodeficiency virus 1, SF162, TZM-bl
[7] = system: Human immunodeficiency virus 1; assay: Antiviral activity against HIV-1 YU-2 (G140S/Q148H) infected in human TZM-bl cells measured after 48 hrs incubation by luciferase based analysis; format: functional, organism-based; details: Human immunodeficiency virus 1, YU-2 (G140S/Q148H)
Cytochrome P450 3A4 [8] = target: T1, Cytochrome P450 3A4 (Homo sapiens, UniProt P08684); assay: Inhibition of CYP3A4 (unknown origin) using testosterone as substrate; format: ADME
T1 sequence (P08684 whole entry): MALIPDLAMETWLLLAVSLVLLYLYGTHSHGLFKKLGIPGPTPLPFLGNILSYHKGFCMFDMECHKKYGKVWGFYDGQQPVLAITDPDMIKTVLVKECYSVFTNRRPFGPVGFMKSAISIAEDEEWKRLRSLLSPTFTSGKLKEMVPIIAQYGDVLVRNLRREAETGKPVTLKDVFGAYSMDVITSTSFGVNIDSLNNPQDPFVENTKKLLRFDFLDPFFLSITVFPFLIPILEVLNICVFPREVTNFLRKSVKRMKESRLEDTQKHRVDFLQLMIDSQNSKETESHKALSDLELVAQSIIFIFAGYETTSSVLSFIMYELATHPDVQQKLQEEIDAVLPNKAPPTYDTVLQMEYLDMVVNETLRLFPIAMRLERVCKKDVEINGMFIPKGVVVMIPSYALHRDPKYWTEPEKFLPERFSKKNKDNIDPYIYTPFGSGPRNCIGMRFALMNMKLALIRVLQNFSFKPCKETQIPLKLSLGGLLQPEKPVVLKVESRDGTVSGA

[9] = Half life in Sprague-Dawley rat at 10 mg/kg, po measured upto 24 hrs; format: ADME, organism-based; details: in vivo
[10] = MRT in Sprague-Dawley rat at 10 mg/kg, po measured upto 24 hrs; format: ADME, organism-based; details: in vivo
in vitro [11] = details: human, PM1 cells
Description: Therapeutic index, ratio of CC50 for human PM1 cells to EC50 for antiviral activity against HIV-1 Ba-L

[12] = system: Human immunodeficiency virus 1; assay: Antiviral activity against HIV-1 KM018 clinical isolate infected in human PBMC measured after 48 hrs incubation by luciferase based analysis; format: functional, organism-based; details: Human immunodeficiency virus 1, KM018, PBMC
in vitro [13] = details: human, PM1 cells; remark: listed apart in the source
Description: Therapeutic index, ratio of CC50 for human PM1 cells to EC50 for antiviral activity against HIV-1 SF162

[14] = Oral bioavailability in Sprague-Dawley rat at 10 mg/kg measured upto 24 hrs; format: ADME, organism-based; details: Sprague-Dawley, in vivo
[15] = AUC (0 to last) in Sprague-Dawley rat at 2 mg/kg, iv measured upto 24 hrs; format: ADME, organism-based; parameters: dose 2 mg/kg, time < 24 hrs, route iv; details: Sprague-Dawley, in vivo
in vitro [16] = details: human, PBMC
Description: Therapeutic index, ratio of CC50 for human PBMC to EC50 for antiviral activity against HIV-1 KM018 clinical isolate

[17] = Cytotoxicity against human PBMC cells incubated for 48 hrs by MTT assay; format: toxicity, cell-based
[18] = AUC (0 to last) in Sprague-Dawley rat at 10 mg/kg, po measured upto 24 hrs; format: ADME, organism-based; parameters: dose 10 mg/kg, time < 24 hrs, route po; details: in vivo
[19] = Cytotoxicity against human HOS-CD4-CCR5 cells incubated for 48 hrs by MTT assay; format: toxicity, cell-based
[20] = system: Human immunodeficiency virus 1; assay: Antiviral activity against HIV-1 KIZ006 clinical isolate infected in human PBMC measured after 48 hrs incubation by luciferase based analysis; format: functional, organism-based; details: Human immunodeficiency virus 1, KIZ006, PBMC
Cytochrome P450 2D6 = Cytochrome P450 2D6 (Homo sapiens, UniProt P10635); assay: Inhibition of CYP2D6 (unknown origin); format: ADME
Cytochrome P450 2D6, sequence (P10635 whole entry): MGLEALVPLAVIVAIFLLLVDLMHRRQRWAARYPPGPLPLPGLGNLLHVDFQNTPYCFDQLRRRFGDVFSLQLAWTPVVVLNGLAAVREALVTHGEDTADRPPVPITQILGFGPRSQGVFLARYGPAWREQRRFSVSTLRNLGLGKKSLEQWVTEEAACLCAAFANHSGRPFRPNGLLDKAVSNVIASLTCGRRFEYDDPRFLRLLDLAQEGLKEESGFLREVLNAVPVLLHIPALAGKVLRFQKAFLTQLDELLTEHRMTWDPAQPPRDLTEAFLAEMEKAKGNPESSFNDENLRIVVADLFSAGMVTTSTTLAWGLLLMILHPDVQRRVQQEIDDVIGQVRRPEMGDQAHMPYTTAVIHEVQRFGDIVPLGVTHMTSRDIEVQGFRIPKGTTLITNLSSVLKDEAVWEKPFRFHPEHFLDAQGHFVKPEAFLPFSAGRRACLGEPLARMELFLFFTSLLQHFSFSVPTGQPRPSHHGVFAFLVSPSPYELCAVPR

[21] = MRT in Sprague-Dawley rat at 2 mg/kg, iv measured upto 24 hrs; format: ADME, organism-based; details: in vivo, iv, 2 mg/kg, 24 h
[22] = system: Human immunodeficiency virus 1; assay: Antiviral activity against HIV-1 Ba-L infected in human HOS-CD4-CCR5 cells measured after 48 hrs incubation by ELISA based p24 antigen assay; format: functional, organism-based; details: Human immunodeficiency virus 1, Ba-L
[23] = Tmax in Sprague-Dawley rat at 10 mg/kg, po measured upto 24 hrs; format: ADME, organism-based; details: in vivo
in vitro [24] = details: human, PBMC; remark: listed apart in the source
Description: Therapeutic index, ratio of CC50 for human PBMC to EC50 for antiviral activity against HIV-1 KIZ006 clinical isolate

[25] = system: Human immunodeficiency virus 1; assay: Antiviral activity against HIV-1 Ba-L infected in human PM1 cells measured after 48 hrs incubation by ELISA based p24 antigen assay; format: functional, organism-based; details: Human immunodeficiency virus 1, Ba-L, PM1, 48 h
in vitro [26] = details: human, PM1 cells; remark: listed apart in the source
Description: Therapeutic index, ratio of CC50 for human PM1 cells to EC50 for antiviral activity against HIV-1 YU-2

Cytochrome P450 2C9 = Cytochrome P450 2C9 (Homo sapiens, UniProt P11712); assay: Inhibition of CYP2C9 (unknown origin); format: ADME
Cytochrome P450 2C9, sequence (P11712 whole entry): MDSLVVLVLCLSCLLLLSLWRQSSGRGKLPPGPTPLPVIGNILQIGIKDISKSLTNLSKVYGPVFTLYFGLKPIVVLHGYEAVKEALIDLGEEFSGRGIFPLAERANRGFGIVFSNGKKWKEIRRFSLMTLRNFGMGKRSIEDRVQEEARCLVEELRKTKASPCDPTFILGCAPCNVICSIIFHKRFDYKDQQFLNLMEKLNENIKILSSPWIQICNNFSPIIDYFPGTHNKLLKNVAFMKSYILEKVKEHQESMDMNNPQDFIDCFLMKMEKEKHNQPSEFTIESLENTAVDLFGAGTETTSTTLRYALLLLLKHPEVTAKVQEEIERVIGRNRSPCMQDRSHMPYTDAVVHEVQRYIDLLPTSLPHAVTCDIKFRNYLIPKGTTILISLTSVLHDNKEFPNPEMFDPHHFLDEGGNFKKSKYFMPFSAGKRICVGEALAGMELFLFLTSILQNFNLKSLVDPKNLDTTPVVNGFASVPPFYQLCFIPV

in vitro [27] = details: human, PBMC; remark: listed apart in the source
Description: Therapeutic index, ratio of CC50 for human PBMC to EC50 for antiviral activity against HIV-1 KIZ001 clinical isolate

[28] = Cytotoxicity against human PM1 cells incubated for 48 hrs by MTT assay; format: toxicity, cell-based
[29] = system: Human immunodeficiency virus 1; assay: Antiviral activity against HIV-1 IIIB infected in human TZM-bl cells measured after 48 hrs incubation by luciferase based analysis; format: functional, organism-based; details: Human immunodeficiency virus 1, IIIB
[30] = Cmax in Sprague-Dawley rat at 10 mg/kg, po measured upto 24 hrs; format: ADME, organism-based; parameters: time < 24 hrs, dose 10 mg/kg, route po; details: in vivo
Cytochrome P450 1A2 = target: T2, Cytochrome P450 1A2 (Homo sapiens, UniProt P05177); assay: Inhibition of CYP1A2 (unknown origin); format: ADME
T2 sequence (P05177 whole entry): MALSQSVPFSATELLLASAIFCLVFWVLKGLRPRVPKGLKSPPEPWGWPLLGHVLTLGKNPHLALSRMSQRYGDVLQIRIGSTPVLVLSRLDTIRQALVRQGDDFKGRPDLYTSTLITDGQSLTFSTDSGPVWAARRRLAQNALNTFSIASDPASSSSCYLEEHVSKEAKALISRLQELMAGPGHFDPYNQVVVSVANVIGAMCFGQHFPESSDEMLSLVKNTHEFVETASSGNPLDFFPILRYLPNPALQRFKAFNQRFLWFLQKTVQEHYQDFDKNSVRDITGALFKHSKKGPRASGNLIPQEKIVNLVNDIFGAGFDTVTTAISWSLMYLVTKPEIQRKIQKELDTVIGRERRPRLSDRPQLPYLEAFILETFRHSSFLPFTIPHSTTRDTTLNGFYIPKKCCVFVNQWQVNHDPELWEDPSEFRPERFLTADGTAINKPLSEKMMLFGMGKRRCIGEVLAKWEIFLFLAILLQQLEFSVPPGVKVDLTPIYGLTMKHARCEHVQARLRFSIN

[31] = Half life in Sprague-Dawley rat at 2 mg/kg, iv measured upto 24 hrs; format: ADME, organism-based; details: in vivo, iv, 2 mg/kg, 24 h
Cytochrome P450 3A4 [32] = target: T1, Cytochrome P450 3A4; assay: Inhibition of CYP3A4 (unknown origin) using midazolam as substrate; format: ADME
[33] = AUC (0 to infinitive) in Sprague-Dawley rat at 10 mg/kg, po measured upto 24 hrs; format: ADME, organism-based; parameters: dose 10 mg/kg, time < 24 hrs, route po; details: Sprague-Dawley, in vivo
Cytochrome P450 2C19 = Cytochrome P450 2C19 (Homo sapiens, UniProt P33261); assay: Inhibition of CYP2C19 (unknown origin); format: ADME
Cytochrome P450 2C19, sequence (P33261 whole entry): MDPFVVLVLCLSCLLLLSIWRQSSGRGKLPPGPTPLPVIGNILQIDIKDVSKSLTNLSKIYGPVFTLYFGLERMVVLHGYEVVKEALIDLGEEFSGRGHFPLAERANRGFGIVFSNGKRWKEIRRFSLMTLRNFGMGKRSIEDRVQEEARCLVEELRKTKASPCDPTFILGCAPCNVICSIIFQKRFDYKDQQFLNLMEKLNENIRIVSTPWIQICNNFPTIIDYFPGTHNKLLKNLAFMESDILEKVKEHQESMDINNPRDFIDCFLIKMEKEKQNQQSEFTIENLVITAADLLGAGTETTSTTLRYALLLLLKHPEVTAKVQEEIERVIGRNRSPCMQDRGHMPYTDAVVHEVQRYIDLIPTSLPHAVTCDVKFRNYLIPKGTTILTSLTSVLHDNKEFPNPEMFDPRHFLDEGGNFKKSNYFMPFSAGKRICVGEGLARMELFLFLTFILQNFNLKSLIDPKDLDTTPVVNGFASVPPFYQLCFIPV

in vitro [34] = details: human, HOS-CD4-CCR5 cells
Description: Therapeutic index, ratio of CC50 for human HOS-CD4-CCR5 cells to EC50 for antiviral activity against HIV-1 Ba-L

[35] = system: Human immunodeficiency virus 1; assay: Antiviral activity against HIV-1 KIZ001 clinical isolate infected in human PBMC measured after 48 hrs incubation by luciferase based analysis; format: functional, organism-based; details: Human immunodeficiency virus 1, KIZ001, PBMC
[36] = AUC (0 to infinitive) in Sprague-Dawley rat at 2 mg/kg, iv measured upto 24 hrs; format: ADME, organism-based; parameters: dose 2 mg/kg, time < 24 hrs, route iv; details: Sprague-Dawley, in vivo

## COC(=O)C1CCC(C(=O)N[C@@H](CCN2[C@@H]3CC[C@H]2C[C@H](n2c(C)nnc2C(C)C)C3)c2cccs2)CC1 (stereo partly specified)
[1]
  pEC50: 8.05
[2]
  pIC50: 7.93
In vitro [3]
  selectivity ratio: > 22200
[4]
  CC50 at 48 h: > 200000 nM

## Cc1nnc(C(C)C)n1[C@H]1C[C@H]2CC[C@@H](C1)N2CC[C@H](NC(=O)C1CCCCC1)c1ccc(C#N)s1
[5]
  pEC50: < 3.70
[2]
  pIC50: < 5.00
[4]
  CC50 at 48 h: > 200000 nM

## CNS(=O)(=O)c1cccc(C(=O)N[C@@H](CCN2[C@@H]3CC[C@H]2C[C@H](n2c(C)nnc2C(C)C)C3)c2cccs2)c1
[5]
  pEC50: 5.33
[2]
  pIC50: 7.50
In vitro [3]
  selectivity ratio: > 43.2
[4]
  CC50 at 48 h: > 200000 nM

## Cc1nnc(C(C)C)n1[C@@H]1C[C@H]2CC[C@@H](C1)N2CC[C@H](NC(=O)C1CCCCC1)c1ccc(F)s1
[2]
  pIC50: 8.03
[6]
  pEC50: 5.58
In vitro [3]
  selectivity ratio: > 75.2
[4]
  CC50 at 48 h: > 200000 nM

## CC(=O)N[C@@H](CCN1C2CCC1CC(n1c(C)nc3c1CCN(C(=O)C(C)C)C3)C2)c1cccc(F)c1 (stereo partly specified)
[7]
  pEC50: 8.64
[2]
  pIC50: 7.72

## Cc1csc([C@H](CCN2[C@@H]3CC[C@H]2C[C@H](n2c(C)nnc2C(C)C)C3)NC(=O)C2CCN(S(C)(=O)=O)CC2)c1
[1]
  pEC50: 7.72
[2]
  pIC50: 7.67
In vitro [3]
  selectivity ratio: > 10500
[4]
  CC50 at 48 h: > 200000 nM

## Cc1ccc([C@H](CCN2[C@@H]3CC[C@H]2C[C@H](n2c(C)nnc2C(C)C)C3)NC(=O)C2CCN(S(C)(=O)=O)CC2)s1
[5]
  pEC50: 5.34
[2]
  pIC50: 8.10
In vitro [3]
  selectivity ratio: > 44
[4]
  CC50 at 48 h: > 200000 nM

## Cc1ccc([C@H](CCN2[C@@H]3CC[C@H]2C[C@H](n2c(C)nnc2C(C)C)C3)NC(=O)CC#N)s1
[5]
  pEC50: < 4.30
[2]
  pIC50: 7.14
[4]
  CC50 at 48 h: > 200000 nM

## Cc1ccc([C@H](CCN2[C@@H]3CC[C@H]2C[C@H](n2c(C)nnc2C(C)C)C3)NC(=O)Cn2cnnn2)s1
[5]
  pEC50: < 4.30
[2]
  pIC50: 7.35
[4]
  CC50 at 48 h: > 200000 nM

## Cc1nc2c(n1[C@@H]1C[C@H]3CC[C@@H](C1)N3CC[C@H](NC(=O)C1CCC(F)(F)CC1)c1ccsc1)CCN(C(=O)C(C)C)C2
Cytochrome P450 3A4 [8]
  pIC50: < 4.60
[9]
  half-life: 10.3 h
[10]
  MRT: 13.2 h
In vitro [11]
  selectivity ratio: > 40000
[12]
  pEC50: 7.49
In vitro [13]
  selectivity ratio: > 12500
[14]
  bioavailability: 15.7%
[15]
  AUC(0-t) at 24 h: 298 ng·h/mL
In vitro [16]
  selectivity ratio: 2550
[17]
  CC50 at 48 h: 81700 nM
[18]
  AUC(0-t) at 24 h: 283 ng·h/mL
[19]
  CC50 at 48 h: > 200000 nM
[20]
  pEC50: 7.90
Cytochrome P450 2D6
  pIC50: < 4.60
[21]
  MRT: 13.2 h
[22]
  pEC50: 8.81
[23]
  Tmax: 2 h
In vitro [24]
  selectivity ratio: 6480
[5]
  pEC50: 7.96
[25]
  pEC50: 9.30
In vitro [26]
  selectivity ratio: > 22900
[7]
  pEC50: 8.36
[1]
  pEC50: 8.06
[2]
  pIC50: 8.08
Cytochrome P450 2C9
  pIC50: < 4.60
In vitro [27]
  selectivity ratio: 10400
[6]
  pEC50: 7.80
[28]
  CC50 at 48 h: > 200000 nM
[29]
  pEC50: < 6.00
[30]
  Cmax: 49.5 ng/mL
Cytochrome P450 1A2
  pIC50: < 4.60
[31]
  t1/2: 1.6 h
Cytochrome P450 3A4 [32]
  pIC50: < 4.60
[33]
  AUC(0-inf): 283 ng·h/mL
Cytochrome P450 2C19
  pIC50: < 4.60
In vitro [34]
  selectivity ratio: > 12800
In vitro [3]
  selectivity ratio: > 18200
[35]
  pEC50: 8.11
[4]
  CC50 at 48 h: > 200000 nM
[36]
  AUC(0-inf): 283 ng·h/mL

## Cc1nnc(C(C)C)n1[C@H]1C[C@H]2CC[C@@H](C1)N2CC[C@H](NC(=O)C1CCC(F)(F)CC1)c1ccccc1 [MARAVIROC]
[12]
  pEC50: 7.99
[20]
  pEC50: 7.04
[22]
  pEC50: 8.98
[5]
  pEC50: 7.82
[25]
  pEC50: 9.47
[7]
  pEC50: 8.66
[1]
  pEC50: 8.53
[6]
  pEC50: 7.72
[29]
  pEC50: < 6.00
[35]
  pEC50: 7.83
